Data reported in publication PMC3288053 (PLoS ONE, 2012).

How the values were obtained:
PPARγ-LBD = target: T1, PPARγ-LBD (Homo sapiens, UniProt P37231); test: SPR (Biacore) binding assay; conditions: 1:1 Langmuir fitting
T1 construct: pET15b-PPARγ-LBD202–477; His-tag (N); made in house; host or cells: E. coli BL21 (DE3)
Method: Binding affinities of Rut towards proteins are analyzed using SPR technology based Biacore 3000 instrument (GE Healthcare). In the assay, proteins are immobilized to CM5 chips using a standard amine-coupling procedure (Biacore manual). The proteins to be covalently bound to the chips are diluted in 10 mM sodium acetate buffer (pH4.5) to a final concentration of 0.10 mg/ml. Before experiments, baseline is equilibrated with a continuous flow of running buffer (10 mM HEPES, 150 mM NaCl, 3 mM EDTA, and 0.005% (v/v) surfactant P20, pH7.4) for 2 hours. Subsequently, Rut with a gradient of concentrations is injected to the channels at a flow rate of 20 µL/min for 60 seconds, followed by disassociation for 120 seconds. The 1∶1 Langmuir binding fitting model in BIAevaluation software version 3.1 (Biacore) is used to determine the equilibrium dissociation constants (K Ds) of compounds. […] Different concentrations of PPARγ-LBD or RXRα-LBD are injected to the channel at a flow rate of 20 µL/min for 60 s, followed by disassociation for 120 s.

PPARγ:RXRα = target: T2, PPARγ:RXRα (Homo sapiens, UniProt P19793+P37231); test: Transient transfection luciferase assay in HEK293 cells (PPRE); type: cell-based; conditions: HEK293, 24 h
T2 construct: expressed in transfected cells; host or cells: HEK293
T2 sequence (P37231 whole entry): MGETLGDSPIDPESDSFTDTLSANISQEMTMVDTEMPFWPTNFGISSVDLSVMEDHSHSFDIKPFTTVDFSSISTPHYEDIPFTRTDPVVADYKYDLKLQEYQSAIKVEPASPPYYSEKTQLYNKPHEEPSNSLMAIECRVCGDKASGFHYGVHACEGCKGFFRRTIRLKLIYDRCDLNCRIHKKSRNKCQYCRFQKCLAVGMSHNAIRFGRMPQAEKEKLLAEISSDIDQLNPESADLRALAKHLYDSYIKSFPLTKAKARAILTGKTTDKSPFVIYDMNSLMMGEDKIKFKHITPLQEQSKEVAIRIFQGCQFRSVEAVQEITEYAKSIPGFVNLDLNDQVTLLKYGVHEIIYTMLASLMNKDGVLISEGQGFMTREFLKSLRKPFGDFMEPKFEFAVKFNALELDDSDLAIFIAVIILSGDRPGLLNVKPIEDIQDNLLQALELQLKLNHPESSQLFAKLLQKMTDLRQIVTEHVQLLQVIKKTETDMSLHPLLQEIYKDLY
T2 sequence (P19793 whole entry): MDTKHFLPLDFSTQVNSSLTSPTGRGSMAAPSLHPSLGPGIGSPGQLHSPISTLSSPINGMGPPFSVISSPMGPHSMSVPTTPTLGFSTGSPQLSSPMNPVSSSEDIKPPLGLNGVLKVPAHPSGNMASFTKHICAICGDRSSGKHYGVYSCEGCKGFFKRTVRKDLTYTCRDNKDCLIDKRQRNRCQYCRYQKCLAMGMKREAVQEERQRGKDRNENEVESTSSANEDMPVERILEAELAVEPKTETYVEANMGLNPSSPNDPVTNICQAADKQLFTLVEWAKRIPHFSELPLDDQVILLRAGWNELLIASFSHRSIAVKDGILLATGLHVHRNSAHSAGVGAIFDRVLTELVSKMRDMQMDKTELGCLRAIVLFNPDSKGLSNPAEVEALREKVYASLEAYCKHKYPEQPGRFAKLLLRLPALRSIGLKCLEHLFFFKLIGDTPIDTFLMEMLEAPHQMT
Method: (§1) HEK293 cells are transiently transfected by Lipo2000 respectively with RXRα, PPARγ, FXR, and LXRα plasmids plus pGL3-RXRE luciferase vector and renilla luciferase vector for 5 hours. Cells are then incubated with indicated concentrations of compounds for another 24 h and finally lysed. Luciferase activities are measured using Dual Luciferase Assay System kit. Rut dose-dependently activates (a) RXRα:RXRα and (b) PPARγ:RXRα activities. Rut has no effects on (c) FXR: RXRα and (d) LXRα:RXRα activities. Data are presented as means ± s.e.m (*P<0.05, **P<0.01) from three independent experiments.
(§2) HEK293 cells are transfected with luciferase reporter plus Renilla luciferase vector and other plasmids if needed for 5 hours, and cells are then incubated with indicated concentrations of compounds for another 24 h. Finally cells are lysed and luciferase activities are measured using Dual Luciferase Assay System kit. The results are presented as the fold activation relative to untreated cells after normalization with Renilla luciferase values. Each experiment is repeated at least twice, with each sample analyzed in triplicates.

RXRα:RXRα = target: T3, RXRα:RXRα (Homo sapiens, UniProt P19793); test: Transient transfection luciferase assay in HEK293 cells (RXRE); type: cell-based; conditions: HEK293, 24 h
T3 construct: expressed in transfected cells; host or cells: HEK293
T3 sequence (P19793 whole entry): as above
Method: as §1, §2

[1] = target: interaction of RXRα with SRC1 (Homo sapiens, UniProt P19793); test: Yeast two-hybrid assay; conditions: AH109 strain, 48 hours
Sequence of interaction of RXRα with SRC1 (P19793 223-462 limits assumed): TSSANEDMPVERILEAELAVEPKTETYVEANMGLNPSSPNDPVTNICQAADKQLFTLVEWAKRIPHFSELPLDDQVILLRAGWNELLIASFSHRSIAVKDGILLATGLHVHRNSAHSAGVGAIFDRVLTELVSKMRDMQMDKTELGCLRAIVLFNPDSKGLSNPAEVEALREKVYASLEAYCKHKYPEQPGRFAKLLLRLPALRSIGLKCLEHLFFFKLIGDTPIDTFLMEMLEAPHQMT
Sequence of interaction of RXRα with SRC1 (Q15788 613-773 partner limits assumed): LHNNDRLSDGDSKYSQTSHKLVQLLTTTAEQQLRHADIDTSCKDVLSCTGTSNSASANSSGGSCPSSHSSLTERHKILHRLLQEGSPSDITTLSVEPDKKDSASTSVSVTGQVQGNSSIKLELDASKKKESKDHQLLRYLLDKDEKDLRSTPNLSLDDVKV

T1 sequence (P37231 230-505): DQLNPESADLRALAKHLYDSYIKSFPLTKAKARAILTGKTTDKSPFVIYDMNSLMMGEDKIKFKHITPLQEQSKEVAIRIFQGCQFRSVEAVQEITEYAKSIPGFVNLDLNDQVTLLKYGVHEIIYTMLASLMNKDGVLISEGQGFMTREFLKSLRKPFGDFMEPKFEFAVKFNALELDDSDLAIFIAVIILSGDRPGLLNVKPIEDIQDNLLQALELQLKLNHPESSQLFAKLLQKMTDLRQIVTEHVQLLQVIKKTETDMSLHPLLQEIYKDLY

## C=CC(C)(C)c1cc2cc3c(cc2oc1=O)O[C@H](C(C)(C)OC(C)=O)C3 [(+)-Rutamarin]
PPARγ-LBD
  equilibrium dissociation constant KD / binding to PPARγ-LBD: no binding
PPARγ:RXRα
  activity of PPAR-response element (PPRE): dose-dependently enhance
RXRα:RXRα
  activity of RXR-response element (RXRE): dose-dependently enhance
[1]
  interaction of SRC1 with RXRα (α-galactosidase activity): dose-dependently enhances
